Measurements from patent US11149271B2, “Method and pharmaceutical composition for treating cancer” (Macau University of Science and Technology, priority 2018, dated 2021).

Columns and labels:
A2780 cells = experiment: MTT cytotoxicity assay on A2780 cells; assay type: cell-based, human; details: for IC50 / inhibition of growth and proliferation (cell viability): 48 h; for IC50: MTT; for inhibition of growth and proliferation (cell viability): 25 nM tRNA, RNAiMAX transfection, A2780 ovarian cancer cells (FIG. 3)
Procedure: (§1) A2780, Taxol-resistant A2780, HCT-8, Taxol-resistant HCT-8 and Taxol-resistant A549 cell lines were cultured in RPMI Medium 1640 medium containing 10% FBS and 1% penicillin/streptomycin. HepG2 and MCF-7 cell lines were cultured in Minimum Essential medium containing 10% FBS and 1% penicillin/streptomycin. All cell lines above were cultured at humidified atmosphere containing 5% CO2 at 37° C.
(§2) In the cytotoxicity assay, exponentially growing cells of each cancer cell line were plated in 96-well microplate at a density of 5000 cells per well in 100 μL of culture medium and allowed to adhere for 24 h before treatment. Serial concentrations of RNA molecules obtained in Example 1 and 2 in a mixture containing a gene delivery carrier, i.e. Lipofectamine™ RNAiMAX Transfection Reagent (Thermo Fisher Scientific, U.S.A.) were then added to the cells. After treated for 48 h, MTT solution (50 μL per well, 1 mg/mL solution) was added to each well and incubated for 4 h at 37° C. Subsequently, 200 μL dimethyl sulfoxide (DMSO) were added and the optical densities of the resulting solutions were calorimetrically determined at 570 nm using a SpectraMax 190 microplate reader (Molecular Devices, Sunnyvale, Calif., U.S.A). Dose-response curves were obtained, and the IC50 values were calculated by GraphPad Prism 5 (GraphPad, La Jolla, Calif., USA). Each experiment was carried out for three times. IC50 results were expressed as means±standard deviation.

[1] = tested on: Taxol-resistant A2780T cells; experiment: MTT cytotoxicity assay on Taxol-resistant A2780 cells; assay type: cell-based, human
Procedure: as §1
as §2, with “Each experiment was carried out for three times.” left out

[2] = tested on: Taxol-resistant A549T cells; experiment: MTT cytotoxicity assay on Taxol-resistant A549 cells; assay type: cell-based, human
Procedure: as §1
as §2, with “Each experiment was carried out for three times.” left out

[3] = tested on: A2780 cells tumor xenografts; experiment: In vivo antitumor effect, A2780 xenograft in nude mice; parameters: species or system BALB/c nude mice; details: 2.4 mg/kg with 1% atelocollagen, tumor-adjacent injection once a week; for inhibition of tumor growth (ratio of tumor volume): 28 days (FIG. 7A); for body weight (ratio of weight changes): 28 days (FIG. 7B)
Procedure: Animal model having xenograft cancer was set. Female BALB/c nude mice (6-8-week old) were purchased from Shanghai SLAC Laboratory Animal Co., Ltd. and maintained at 25° C. with free access to food and water in a special pathogen-free laboratory of the animal environment facilities. The animal experiments were performed in compliance with institutional animal care guidelines and according to committee-approved protocol. To generate tumor xenografts, A2780 cells (4.0×10^6) were injected subcutaneously in 100 μL of 1640 medium through a 27-gauge needle into the armpit of 8-week-old BALB/c nude mice. After 4-5 weeks after tumors had reached 60-70 mm^3, the tumor-bearing nude mice were treated with synthesized tRF with atelocollagen (Koken Co., Ltd., Tokyo, Japan). The concentration of atelocollagen was 1%, and tumor-adjacent injection was performed by one dose of HC11 or HC30 (RNA molecule of SEQ ID NO: 1 or SEQ ID NO: 9) (GenePharma Co., Ltd., Shanghai, China) at concentration of 2.4 mg/kg with atelocollagen once a week. A control group was set up in which vehicle was administered to the mice. A Taxol group for administering 1 mg/kg Taxol to the mice was also set as a comparison. The entire treatment lasted for 28 days.
Tumor diameters were measured at maximum length and maximum width with digital calipers. And the tumor volume was calculated by the formula: volume=(width)^2×length/2. The data were statistically analyzed using GraphPad Prism 5 (GraphPad, La Jolla, Calif., USA). […] In other words, the RNA molecules of the present invention are effective in treating cancer cells both in vivo and in vitro.

HCT-8 cells = experiment: MTT cytotoxicity assay on HCT-8 cells; assay type: cell-based; details: for dose dependence of growth and proliferation inhibition: 6.25-100 nM (FIG. 6G, 6H); for IC50: 48 h, MTT
Procedure: as §1, §2

[4] = tested on: Taxol-resistant HCT-8 cells (HCT-8T); experiment: MTT cytotoxicity assay on Taxol-resistant HCT-8 cells; assay type: cell-based; details: 50 nM, 22 bp (FIG. 5F)
Procedure: as §1, §2

HepG2 cells = experiment: MTT cytotoxicity assay on HepG2 cells; assay type: cell-based, human; details: 25 nM tRNA, 48 h, RNAiMAX transfection, HepG2 liver cancer cells (FIG. 3)
Procedure: as §1, §2

MCF-7 cells = experiment: MTT cytotoxicity assay on MCF-7 cells; assay type: cell-based, human; details: 25 nM tRNA, 48 h, RNAiMAX transfection, MCF-7 breast cancer cells (FIG. 3)
Procedure: as §1, §2

HC11: double-stranded RNA, sense SEQ ID NO: 1, antisense SEQ ID NO: 101, 22 bp, 5′-t of tRNA^His(GUG) (sense GCGGACGUAGCCAAGUGGUCCA; antisense UGGACCACUUGGCUACGUCCGC; RNA, backbone and methylation of C not given here; synthetic double-stranded RNA)
dose dependence of growth and proliferation inhibition (A2780 cells; A2780 cells, 6.25-100 nM (FIG. 6A)): dose-dependent effect | IC50 (A2780 cells; A2780 cells): 31 nM | dose dependence of growth and proliferation inhibition ([1]; A2780T cells, 6.25-200 nM (FIG. 6C)): dose-dependent effect | IC50 ([1]; Taxol-resistant A2780T cells, 48 h, MTT): 32.3 nM | dose dependence of growth and proliferation inhibition ([2]; A549T cells, 6.25-200 nM (FIG. 6E)): dose-dependent effect | IC50 ([2]; Taxol-resistant A549T cells, 48 h, MTT): 87.3 nM | inhibition of tumor growth (ratio of tumor volume) [3]: effective in inhibiting the growth of the tumor | body weight (ratio of weight changes) [3]: maintaining a relative constant body weight

HC37: double-stranded RNA, sense SEQ ID NO: 31, antisense SEQ ID NO: 131, 22 bp, 3′-t of tRNA^Asn(GUU) (sense GGUUCAAAUCCUAUUUGAGGAG; antisense CUCCUCAAAUAGGAUUUGAACC; RNA, backbone and methylation of C not given here; synthetic double-stranded RNA)
dose dependence of growth and proliferation inhibition (HCT-8 cells): dose-dependent effect | IC50 (HCT-8 cells): 9.3 nM | cytotoxic effect (cell viability) [4]: useful in treating cancer which is resistant against Taxol

HC30: double-stranded RNA, sense SEQ ID NO: 9, antisense SEQ ID NO: 109, 22 bp, 5′-t of tRNA^Trp(CCA) (sense GCGCUCUUAGUUCAGUGCGGUA; antisense UACCGCACUGAACUAAGAGCGC; RNA, backbone and methylation of C not given here; synthetic double-stranded RNA)
inhibition of tumor growth (ratio of tumor volume) [3]: effective in inhibiting the growth of the tumor | body weight (ratio of weight changes) [3]: maintaining a relative constant body weight

HC39: double-stranded RNA, sense SEQ ID NO: 35, antisense SEQ ID NO: 135, 22 bp, 3′-t of tRNA^Met(CAU) (sense GGUUCAAAUCCCGUCUCCGCAA; antisense UUGCGGAGACGGGAUUUGAACC; RNA, backbone and methylation of C not given here; synthetic double-stranded RNA)
cytotoxic effect (cell viability) [4]: useful in treating cancer which is resistant against Taxol

HC36: double-stranded RNA, sense SEQ ID NO: 29, antisense SEQ ID NO: 129, 22 bp, 5′-t of tRNA^Asn(GUU) (sense CCUCAGUAGCUCAGUGGUAGAG; antisense CUCUACCACUGAGCUACUGAGG; RNA, backbone and methylation of C not given here; synthetic double-stranded RNA)
dose dependence of growth and proliferation inhibition (HCT-8 cells): dose-dependent effect | IC50 (HCT-8 cells): 8.2 nM | cytotoxic effect (cell viability) [4]: useful in treating cancer which is resistant against Taxol

HC34: double-stranded RNA, sense SEQ ID NO: 25, antisense SEQ ID NO: 125, 22 bp, 5′-t of tRNA^Cys(GCA) (sense GGCGACAUAGCCAAGUGGUAAG; antisense CUUACCACUUGGCUAUGUCGCC; RNA, backbone and methylation of C not given here; synthetic double-stranded RNA)
cytotoxic effect (cell viability) [4]: useful in treating cancer which is resistant against Taxol

HC18: double-stranded RNA, sense SEQ ID NO: 13, antisense SEQ ID NO: 113, 22 bp, 5′-t of tRNA^Leu(CAA) (sense GCCUUGAUGGUGAAAUGGUAGA; antisense UCUACCAUUUCACCAUCAAGGC; RNA, backbone and methylation of C not given here; synthetic double-stranded RNA)
cytotoxic effect (cell viability) [4]: useful in treating cancer which is resistant against Taxol

B1: tRNA^Trp(CCA): tRNA isolated from Taxus chinensis (Pilger) Rehd. var. mairei, 75 mer (nucleic acid)
chain: GCGCUCUUAGUUCAGUGCGGUAGAACGCAGGUCUCCAAAACCUGAUGCCGUAGGUUCAAAUCCUACAGAGCGCCA
modifications: expressed or natural sequence
notes: tRNA isolated from Taxus chinensis (Pilger) Rehd. var. mairei, 75 mer
inhibition of growth and proliferation (cell viability) (A2780 cells): capable of inhibiting the growth and proliferation | IC50 (A2780 cells; A2780 cells): ~14.3 nM | inhibition of growth and proliferation (cell viability) (HepG2 cells): capable of inhibiting the growth and proliferation | inhibition of growth and proliferation (cell viability) (MCF-7 cells): capable of inhibiting the growth and proliferation

B2: tRNA^His(GUG): tRNA isolated from Taxus chinensis (Pilger) Rehd. var. mairei, 78 mer (nucleic acid)
chain: GCGGACGUAGCCAAGUGGUCCAAAGGCAGUGGAUUGUGAAUCCACCACGCGCGGGUUCAAUCCCCGUCGUUCGCCCCA
modifications: expressed or natural sequence
notes: tRNA isolated from Taxus chinensis (Pilger) Rehd. var. mairei, 78 mer
inhibition of growth and proliferation (cell viability) (A2780 cells): capable of inhibiting the growth and proliferation | inhibition of growth and proliferation (cell viability) (HepG2 cells): capable of inhibiting the growth and proliferation | inhibition of growth and proliferation (cell viability) (MCF-7 cells): capable of inhibiting the growth and proliferation

B3: tRNA^Arg(ACG): tRNA isolated from Taxus chinensis (Pilger) Rehd. var. mairei, 77 mer (nucleic acid)
chain: GGGCCUGUAGCUCAGAGGAUUAGAGCACGUGGUUGCGAACCACGGUGUCGGGGGUUCGAAUCCCUCCUCGCCCACCA
modifications: expressed or natural sequence
notes: tRNA isolated from Taxus chinensis (Pilger) Rehd. var. mairei, 77 mer
inhibition of growth and proliferation (cell viability) (A2780 cells): capable of inhibiting the growth and proliferation | inhibition of growth and proliferation (cell viability) (HepG2 cells): capable of inhibiting the growth and proliferation | inhibition of growth and proliferation (cell viability) (MCF-7 cells): capable of inhibiting the growth and proliferation

B4: tRNA^Glu(UUC): tRNA isolated from Taxus chinensis (Pilger) Rehd. var. mairei, 76 mer (nucleic acid)
chain: GCCCCUAUCGUCUAGUGGCCCAGGACAUCUCUCUUUCAAGGAGGCAACGGGGAUUCGAUUUCCCCUAGGGGUACCA
modifications: expressed or natural sequence
notes: tRNA isolated from Taxus chinensis (Pilger) Rehd. var. mairei, 76 mer
inhibition of growth and proliferation (cell viability) (A2780 cells): capable of inhibiting the growth and proliferation | inhibition of growth and proliferation (cell viability) (HepG2 cells): capable of inhibiting the growth and proliferation | inhibition of growth and proliferation (cell viability) (MCF-7 cells): capable of inhibiting the growth and proliferation

B5: tRNA^Leu(CAA): tRNA isolated from Taxus chinensis (Pilger) Rehd. var. mairei, 84 mer (nucleic acid)
chain: GCCUUGAUGGUGAAAUGGUAGACACGCGAGACUCAAAAUCUCGUGCUAAACAGCGUGGAGGUUCGAAUCCUCUUCAAGGCACCA
modifications: expressed or natural sequence
notes: tRNA isolated from Taxus chinensis (Pilger) Rehd. var. mairei, 84 mer
inhibition of growth and proliferation (cell viability) (A2780 cells): capable of inhibiting the growth and proliferation | inhibition of growth and proliferation (cell viability) (HepG2 cells): capable of inhibiting the growth and proliferation | inhibition of growth and proliferation (cell viability) (MCF-7 cells): capable of inhibiting the growth and proliferation
